For this assay, the target named is T1, lymphostatin (LifA; rLifA) (Escherichia coli, UniProt B7UI23).
T1 construct: gene E2348C_3234; full-length, C-terminal His6 tag kept, expressed in E. cloni (E. coli K-12) from pRham; 3229 residues as printed, 365 kDa, monomer
Briefly: intrinsic tryptophan fluorescence titration (ex […] nm, em […] nm). The format is binding.

Each structure is given as a SMILES string.

The compound `CC(=O)N[C@H]1[C@@H](OP(=O)(O)OP(=O)(O)OC[C@H]2O[C@@H](n3ccc(=O)[nH]c3=O)[C@H](O)[C@@H]2O)O[C@H](CO)[C@@H](O)[C@@H]1O` [UDP-GlcNAc] displayed a Kd of 120 ± 30 µM.

For the origin of these results see publication PMC4786716, “Biophysical Characterization and Activity of Lymphostatin, a Multifunctional Virulence Factor of Attaching and Effacing Escherichia coli” (The Journal of Biological Chemistry, 2016).
